# Test results: ChEMBL document CHEMBL1154913, “Sesquiterpene lactones from Anthemis melanolepis and their antibacterial and cytotoxic activities. Prediction of their pharmacokinetic profile” (2010)
# Active and inactive are the calls of the source. The calls are words filed in the database; no cut-off is given here.
# Assays:
# NCI-H460 [1] = assay: Cytotoxicity against human H460 cells at 100 uM after 48 hrs by SRB assay; assay type: functional, cell-based
# Pseudomonas tolaasii = assay: Antibacterial activity against Pseudomonas tolaasii after 48 hrs by serial dilution technique; assay type: functional
# Candida albicans = assay: Antifungal activity against Candida albicans clinical isolate after 48 hrs by serial dilution technique; assay type: functional
# NCI-H460 [2] = assay: Cytotoxicity against human H460 cells after 48 hrs by SRB assay; assay type: functional; conditions: NCI-H460, 48 h
# Pseudomonas aeruginosa = assay: Antibacterial activity against Pseudomonas aeruginosa clinical isolate after 48 hrs by serial dilution technique; assay type: functional
# Micrococcus luteus [3] = assay: Antibacterial activity against Micrococcus luteus clinical isolate after 48 hrs by serial dilution technique; assay type: functional
# MCF7 [4] = assay: Cytotoxicity against human MCF7 cells after 48 hrs by SRB assay; assay type: functional; conditions: MCF7, 48 h
# Bacillus cereus = assay: Antibacterial activity against Bacillus cereus clinical isolate after 48 hrs by serial dilution technique; assay type: functional
# Micrococcus luteus [5] = assay: Antibacterial activity against Sarcina lutea ATCC 9341 after 48 hrs by serial dilution technique; assay type: functional; conditions: ATCC 9341, 48 h
# SF-268 [6] = assay: Cytotoxicity against human SF268 at 100 uM cells after 48 hrs by SRB assay; assay type: functional, cell-based
# Proteus mirabilis = assay: Antibacterial activity against Proteus mirabilis clinical isolate after 48 hrs by serial dilution technique; assay type: functional, organism-based
# Salmonella enterica = assay: Antibacterial activity against Salmonella enteritidis ATCC 13076 after 48 hrs by serial dilution technique; assay type: functional, Salmonella enterica subsp. enterica serovar Enteritidis; conditions: ATCC 13076, 48 h
# [7] = test system: Agrobacterium tumefaciens; assay: Antibacterial activity against Agrobacterium tumefaciens A 281 after 48 hrs by serial dilution technique; assay type: functional; conditions: A 281, 48 h
# Staphylococcus aureus = assay: Antibacterial activity against Staphylococcus aureus ATCC 6538 after 48 hrs by serial dilution technique; assay type: functional; conditions: ATCC 6538, 48 h
# SF-268 [8] = assay: Cytotoxicity against human SF268 cells after 48 hrs by SRB assay; assay type: functional; conditions: SF-268, 48 h
# Escherichia coli = assay: Antibacterial activity against Escherichia coli ATCC 35218 after 48 hrs by serial dilution technique; assay type: functional; conditions: ATCC 35218, 48 h
# MCF7 [9] = assay: Cytotoxicity against human MCF7 cells at 100 uM after 48 hrs by SRB assay; assay type: functional, cell-based
SMILES,LC50 (NCI-H460 [1]),TGI (NCI-H460 [1]),MIC (Pseudomonas tolaasii) [µg/mL],MIC (Candida albicans) [µg/mL],MIC (Pseudomonas aeruginosa) [µg/mL],MIC (Micrococcus luteus [3]) [µg/mL],MIC (Bacillus cereus) [µg/mL],MIC (Micrococcus luteus [5]) [µg/mL],LC50 (SF-268 [6]),MIC (Proteus mirabilis),MIC (Salmonella enterica) [µg/mL],MIC [7] [µg/mL],MIC (Staphylococcus aureus) [µg/mL],GI50 (SF-268 [8]) [µM],MIC (Escherichia coli) [µg/mL],also measured
C=C1C(=O)O[C@H]2C[C@@]3(C)[C@H](O)CCC(=C)[C@@H]3[C@@H](O)[C@H]12,inactive,inactive,25,25,25,6.25,6.25,6.25,inactive,inactive,25,25,0.625,42.7,25,GI50 (NCI-H460 [2]): 69 µM; GI50 (MCF7 [4]): 52.3 µM; LC50 (MCF7 [4]): 85.8 µM; TGI (MCF7 [4]): 64.2 µM; TGI (SF-268 [6]): inactive
c1ccc(-c2ccc(C(c3ccccc3)n3ccnc3)cc2)cc1 (centres undefined) [BIFONAZOLE],–,–,–,200,–,–,–,–,–,inactive,–,–,–,–,–,–
C=C1C(=O)O[C@H]2C[C@@]3(C)[C@H](O)CC[C@@](C)(O)[C@@H]3[C@@H](O)[C@H]12,inactive,inactive,25,–,50,12.5,12.5,6.25,inactive,inactive,25,25,1.25,40.3,25,GI50 (NCI-H460 [1]): inactive; TGI (SF-268 [6]): inactive; GI50 (MCF7 [9]): inactive; LC50 (MCF7 [9]): inactive; TGI (MCF7 [9]): inactive
C=C1C(=O)O[C@H]2/C=C(\C)[C@@H](O)CC/C(C)=C/[C@@H](O)[C@H]12 [TATRIDIN A],–,–,25,25,25,6.25,6.25,6.25,–,inactive,25,25,0.625,–,25,–
C=C1C[C@@H]2OC(=O)C(=C)[C@H]2[C@@H](O)/C=C(\C)CCC1=O [ANTHEMIN C],–,–,–,–,–,12.5,12.5,25,–,inactive,–,–,1.25,–,–,–
C=C1C(=O)O[C@H]2CC(=C)[C@@H](O)CC/C(C)=C/[C@@H](O)[C@H]12 [TATRIDIN B],–,–,25,25,25,6.25,6.25,6.25,–,inactive,25,25,0.625,–,25,–
C=C1C(=O)O[C@H]2C[C@@]3(C)[C@H](C(=C)CC[C@@H]3O)[C@@H](O)[C@H]12 [ELEGALACTONE A],inactive,inactive,–,–,–,50,–,–,inactive,inactive,–,–,50,76,–,GI50 (NCI-H460 [1]): inactive; TGI (SF-268 [6]): inactive; GI50 (MCF7 [9]): inactive; LC50 (MCF7 [9]): inactive; TGI (MCF7 [9]): inactive
C=C1C(=O)O[C@H]2/C=C(\C)[C@@H](O)CC[C@@]3(C)O[C@@H]3[C@H](O)[C@H]12,–,–,25,–,50,12.5,12.5,6.25,–,inactive,25,25,1.25,–,25,–
CN[C@@H]1[C@H](O[C@H]2[C@H](O[C@H]3[C@H](O)[C@@H](O)[C@H](N=C(N)N)[C@@H](O)[C@@H]3N=C(N)N)O[C@@H](C)[C@]2(O)C=O)O[C@@H](CO)[C@H](O)[C@H]1O [STREPTOMYCIN],–,–,200,–,–,50,50,50,–,inactive,200,100,–,–,100,–
CC[C@]1(O)C[C@@H]2CN(CCc3c([nH]c4ccccc34)[C@@](C(=O)OC)(c3cc4c(cc3OC)N(C)[C@H]3[C@@](O)(C(=O)OC)[C@H](OC(C)=O)[C@]5(CC)C=CCN6CC[C@]43[C@@H]65)C2)C1 [VINBLASTINE],–,–,–,–,–,–,–,–,–,–,–,–,–,< 0.01,–,GI50 (NCI-H460 [2]): < 0.01 µM; TGI (NCI-H460 [2]): 0.35 µM; GI50 (MCF7 [4]): < 0.01 µM; TGI (MCF7 [4]): 1.6 µM; TGI (SF-268 [8]): 1.64 µM; CC50 (SF-268 [8]; read-out: LC50 (the source's name)): 2.48 µM
C=C1C(=O)O[C@H]2C[C@]3(C)[C@H](O)CCC(=C)[C@@H]3[C@@H](O)[C@H]12 [ANTHEMIN B],inactive,inactive,–,–,–,–,–,–,inactive,–,–,–,–,52.3,–,GI50 (NCI-H460 [1]): inactive; GI50 (MCF7 [9]): inactive; LC50 (MCF7 [9]): inactive; TGI (MCF7 [9]): inactive; TGI (SF-268 [8]): 80.3 µM
